Source: patent publication US8148391B2 (Cephalon, Inc., priority 2006, dated 2012)
Like-named read-outs stand apart in the source and are kept apart here.

How the values were obtained:
[1] = target: T1, baculovirus-expressed ALK (Homo sapiens, UniProt Q9UM73); assay: ALK Kinase Assay (ELISA-type, time-resolved fluorescence); format: biochemical
T1 construct: host or cells: baculovirus expression system
Outline: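 Wells were coated with phospholipase C-γ at 10 μg/mL in Tris-buffered saline. Adding 30 ng/ml enzyme started the reaction, which ran at 37° C for 15 minutes before Eu-N1 PT66 antibody detection. Percent inhibition versus log10 concentration gave IC50 by variable-slope fit.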

[2] = target: T2, c-Met (cytoplasmic domain) (Homo sapiens, UniProt P08581); assay: c-Met Kinase Assay (same methods as for ALK, with modifications); format: biochemical
T2 construct: 10 ng/mL c-Met (cytoplasmic domain, Invitrogen Corporation #PV3143); purchased Invitrogen Corporation PV3143
Outline: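 Steps: coat wells with PLC-γ (10 μg/mL, Tris-buffered saline); add 10 ng/mL c-Met cytoplasmic domain to initiate; incubate 15 min, 37° C; detect phosphoproduct via Eu-N1 PT66 antibody.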

[3] = 1 μM ATP (Km level), 30 ng/ml ALK, 37° C., 15 minutes, read-out: ALK Activity (ALK kinase inhibition, IC50 class)
[4] = 1 μM ATP (Km level), 10 ng/mL c-Met, read-out: cMet Activity (c-Met kinase inhibition, IC50 class)
[5] = ALK kinase inhibition, 1 μM ATP, read-out: ALK Activity
[6] = c-Met kinase inhibition, 1 μM ATP, read-out: cMet Activity
[7] = ALK kinase inhibition, 1 μM ATP (Km level), read-out: ALK Activity
[8] = c-Met kinase inhibition, 1 μM ATP (Km level), read-out: cMet Activity

T1 sequence (Q9UM73 19-1620): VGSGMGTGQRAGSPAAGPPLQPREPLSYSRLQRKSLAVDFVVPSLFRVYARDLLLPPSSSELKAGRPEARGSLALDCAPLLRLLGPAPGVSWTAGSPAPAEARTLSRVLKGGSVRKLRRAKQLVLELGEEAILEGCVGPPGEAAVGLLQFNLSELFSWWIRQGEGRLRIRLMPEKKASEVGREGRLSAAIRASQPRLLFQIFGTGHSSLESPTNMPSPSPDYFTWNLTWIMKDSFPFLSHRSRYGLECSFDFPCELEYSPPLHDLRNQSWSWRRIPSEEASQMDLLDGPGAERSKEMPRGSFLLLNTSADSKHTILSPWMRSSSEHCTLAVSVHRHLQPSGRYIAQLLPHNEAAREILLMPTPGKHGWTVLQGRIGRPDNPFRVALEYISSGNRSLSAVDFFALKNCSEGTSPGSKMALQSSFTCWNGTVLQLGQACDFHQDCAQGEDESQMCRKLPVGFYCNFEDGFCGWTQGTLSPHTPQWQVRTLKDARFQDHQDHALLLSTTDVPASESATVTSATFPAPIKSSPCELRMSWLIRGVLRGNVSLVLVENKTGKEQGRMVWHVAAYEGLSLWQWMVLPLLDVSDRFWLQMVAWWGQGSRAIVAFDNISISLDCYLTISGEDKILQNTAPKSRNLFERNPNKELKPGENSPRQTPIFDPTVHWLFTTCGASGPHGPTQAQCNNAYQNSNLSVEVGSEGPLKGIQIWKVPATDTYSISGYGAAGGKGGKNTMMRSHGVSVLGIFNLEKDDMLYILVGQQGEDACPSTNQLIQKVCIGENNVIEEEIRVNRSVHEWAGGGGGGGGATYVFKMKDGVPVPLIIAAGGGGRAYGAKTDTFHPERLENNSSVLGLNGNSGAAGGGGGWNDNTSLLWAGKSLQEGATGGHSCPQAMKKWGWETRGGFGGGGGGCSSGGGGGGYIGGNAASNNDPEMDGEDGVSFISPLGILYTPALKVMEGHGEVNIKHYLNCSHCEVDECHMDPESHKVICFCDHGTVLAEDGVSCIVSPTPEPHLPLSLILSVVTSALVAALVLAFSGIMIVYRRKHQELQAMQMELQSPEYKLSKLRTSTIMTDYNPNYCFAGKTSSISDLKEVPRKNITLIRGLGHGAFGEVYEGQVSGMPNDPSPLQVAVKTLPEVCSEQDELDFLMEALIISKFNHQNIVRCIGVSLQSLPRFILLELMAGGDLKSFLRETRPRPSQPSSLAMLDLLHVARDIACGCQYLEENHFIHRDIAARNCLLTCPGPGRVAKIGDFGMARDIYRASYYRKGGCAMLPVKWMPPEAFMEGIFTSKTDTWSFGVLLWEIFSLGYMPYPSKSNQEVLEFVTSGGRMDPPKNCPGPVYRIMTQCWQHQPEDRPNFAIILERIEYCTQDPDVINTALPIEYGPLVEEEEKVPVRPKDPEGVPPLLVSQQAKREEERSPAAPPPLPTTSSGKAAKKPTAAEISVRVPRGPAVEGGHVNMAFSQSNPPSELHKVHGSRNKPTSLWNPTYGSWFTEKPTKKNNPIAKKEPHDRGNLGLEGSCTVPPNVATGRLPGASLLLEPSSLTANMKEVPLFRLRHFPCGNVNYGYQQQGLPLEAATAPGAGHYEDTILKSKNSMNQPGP
T2 sequence (P08581 956-1390 limits assumed): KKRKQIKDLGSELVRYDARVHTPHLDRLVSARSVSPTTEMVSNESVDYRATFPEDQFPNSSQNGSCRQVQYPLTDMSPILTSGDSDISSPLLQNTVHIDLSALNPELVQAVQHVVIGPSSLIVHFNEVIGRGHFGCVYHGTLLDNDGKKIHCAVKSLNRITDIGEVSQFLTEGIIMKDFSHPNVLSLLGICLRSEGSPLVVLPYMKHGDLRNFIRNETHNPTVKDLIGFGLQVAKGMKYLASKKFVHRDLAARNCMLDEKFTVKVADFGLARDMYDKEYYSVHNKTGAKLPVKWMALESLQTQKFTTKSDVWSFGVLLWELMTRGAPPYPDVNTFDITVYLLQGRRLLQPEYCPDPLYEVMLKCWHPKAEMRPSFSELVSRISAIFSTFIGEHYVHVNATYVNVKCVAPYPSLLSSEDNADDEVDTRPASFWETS

IC50 [1, 3] [µM]	IC50 [2, 4] [µM]	IC50 [1, 5] [µM]	IC50 [2, 6] [µM]	IC50 [1, 7] [µM]	IC50 [2, 8] [µM]	SMILES	further results
1 to 10	1 to 10	–	–	–	–	COc1cccc(C(=O)NCC#N)c1Nc1nc(Nc2ccc3c(c2)C(C)(C)CCC(=O)N3)ncc1Cl [Example 1064, 2-[5-Chloro-2-(5,5-dimethyl-2-oxo-2,3,4,5-tetrahydro-1H-benzo[b]azepin-7-ylamino)-pyrimidin-4-ylamino]-N-cyanomethyl-3-methoxy-benzamide]	–
< 0.1	1 to 10	–	–	–	–	CNC(=O)CN1CCc2ccc(Nc3ncc(Cl)c(Nc4ccc(N5CCOCC5)cc4OC)n3)cc2CC1 [Example 1127, 2-{7-[5-Chloro-4-(2-methoxy-4-morpholin-4-yl-phenylamino)-pyrimidin-2-ylamino]-1,2,4,5-tetrahydro-benzo[d]azepin-3-yl}-N-methyl-acetamide]	–
–	–	0.1 to 1	0.1 to 1	–	–	CNC(=O)c1sccc1Nc1nc(Nc2ccc3c(c2)OCCCN3C(=O)OC2CCCN(C)C2)ncc1Cl (centres unmarked) [Example 1440, 3-[5-Chloro-4-(2-methylcarbamoyl-thiophen-3-ylamino)-pyrimidin-2-ylamino]-7,8-dihydro-6H-5-oxa-9-aza-benzocycloheptene-9-carboxylic acid 1-methyl-piperidin-3-yl ester]	–
–	–	–	–	–	–	COc1c(Nc2ncc(Cl)c(N[C@@H]3CCCC[C@H]3NS(C)(=O)=O)n2)ccc2c1CCCC(N1CCOCC1)C2 (stereo partly drawn) [Example 949, N-{(1R,2R)-2-[5-Chloro-2-(1-methoxy-6-morpholin-4-yl-6,7,8,9-tetrahydro-5H-benzocyclohepten-2-ylamino)-pyrimidin-4-ylamino]-cyclohexyl}-methanesulfonamide]	IC50 ([1]; 1 μM ATP (Km level), read-out: ALK Activity (ALK Kinase Inhibition, IC50)): < 0.1 µM; IC50 ([2]; 1 μM ATP (Km level), read-out: cMet Activity (c-Met Kinase Inhibition, IC50)): > 10 µM
–	–	–	–	< 0.1	> 10	COc1cc(N2CCOCC2)ccc1Nc1nc(Nc2ccc3c(c2)CCN(C[C@H](OC)C(F)(F)F)CC3)ncc1Cl [Example 337, 5-Chloro-N*4*-(2-methoxy-4-morpholin-4-yl-phenyl)-N*2*-[-((S)-3,3,3-trifluoro-2-methoxy-propyl)-2,3,4,5-tetrahydro-1H-benzo[d]azepin-7-yl]-pyrimidine-2,4-diamine]	–
–	–	–	–	< 0.1	> 10	CNC(=O)[C@@H]1CCC[C@@H]1Nc1nc(Nc2cc3c(cc2OC)CCN(CC(=O)N(C)C)CC3)ncc1Cl (relative stereo) [Example 375, cis-2-[5-Chloro-2-(3-dimethylcarbamoylmethyl-8-methoxy-2,3,4,5-tetrahydro-1H-benzo[d]azepin-7-ylamino)-pyrimidin-4-ylamino]-cyclopentanecarboxylic acid methylamide]	–
–	–	1 to 10	0.1 to 1	–	–	CNC(=O)c1cccc(F)c1Nc1nc(Nc2ccc3c(c2)N(C(=O)CN2CCCC2)CCCO3)ncc1Cl [Example 1704, 2-{5-Chloro-2-[9-(2-pyrrolidin-1-yl-acetyl)-6,7,8,9-tetrahydro-5-oxa-9-aza-benzocyclohepten-2-ylamino]-pyrimidin-4-ylamino}-3-fluoro-N-methyl-benzamide]	–
< 0.1	< 0.1	–	–	–	–	N#CCNC(=O)c1cccc(F)c1Nc1nc(Nc2ccc3c(c2)CCCC(=O)N3)ncc1Cl [Example 1046, 2-[5-Chloro-2-(2-oxo-2,3,4,5-tetrahydro-1H-benzo[b]azepin-7-ylamino)-pyrimidin-4-ylamino]-N-cyanomethyl-3-fluoro-benzamide]	–
–	–	–	–	< 0.1	> 10	COc1cc2c(cc1Nc1ncc(Cl)c(Nc3ccc(N4CCOCC4)cc3OC)n1)CCN(CCNC(C)=O)CC2 [Example 257, N-(2-{7-[5-Chloro-4-(2-methoxy-4-morpholin-4-yl-phenylamino)-pyrimidin-2-ylamino]-8-methoxy-1,2,4,5-tetrahydro-benzo[d]azepin-3-yl}-ethyl)-acetamide]	–
–	–	< 0.1	1 to 10	–	–	COc1cc2c(cc1Nc1ncc(Cl)c(Nc3ccccc3S(=O)(=O)N(C)C)n1)CCN(CCOC(=O)CN)CC2 [Example 1542, Amino-acetic acid 2-{7-[5-chloro-4-(2-dimethylsulfamoyl-phenylamino)-pyrimidin-2-ylamino]-8-methoxy-1,2,4,5-tetrahydro-benzo[d]azepin-3-yl}-ethyl ester]	–
